According to patent US20110104177A1, “HISTONE DEACETYLASE INHIBITORS, COMBINATION THERAPIES AND METHODS OF USE” (THE JOHNS HOPKINS UNIVERSITY, priority 2006, published 2011):

What was measured:
[1] = target: T1, SIRT1 (Homo sapiens, UniProt Q96EB6); assay: Activity against the SIRT1 enzyme / SIRT1 deacetylase activity; type: biochemical
T1 sequence (Q96EB6 1-747): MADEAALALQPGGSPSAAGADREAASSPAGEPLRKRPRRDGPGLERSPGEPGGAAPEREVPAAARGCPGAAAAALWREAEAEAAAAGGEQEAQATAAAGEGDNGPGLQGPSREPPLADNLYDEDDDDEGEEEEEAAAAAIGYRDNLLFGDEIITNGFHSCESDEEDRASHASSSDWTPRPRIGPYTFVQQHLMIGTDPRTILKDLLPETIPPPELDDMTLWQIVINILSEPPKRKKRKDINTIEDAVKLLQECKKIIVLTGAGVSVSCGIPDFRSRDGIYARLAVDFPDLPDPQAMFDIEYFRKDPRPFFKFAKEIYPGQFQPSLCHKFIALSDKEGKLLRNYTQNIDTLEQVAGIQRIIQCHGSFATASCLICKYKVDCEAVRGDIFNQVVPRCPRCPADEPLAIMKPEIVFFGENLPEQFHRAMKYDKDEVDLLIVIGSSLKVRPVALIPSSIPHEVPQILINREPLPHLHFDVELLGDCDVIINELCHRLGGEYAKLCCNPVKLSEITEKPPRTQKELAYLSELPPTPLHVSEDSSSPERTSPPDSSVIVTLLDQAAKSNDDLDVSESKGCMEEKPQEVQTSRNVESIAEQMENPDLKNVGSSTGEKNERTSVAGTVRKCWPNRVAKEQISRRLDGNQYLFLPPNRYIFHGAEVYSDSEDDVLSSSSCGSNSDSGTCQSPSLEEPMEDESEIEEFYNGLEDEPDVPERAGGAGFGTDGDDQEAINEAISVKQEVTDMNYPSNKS

[2] = system: SFRP1, SFRP2, MLH1, CRBP1, E-cadherin genes in RKO cells; assay: RT-PCR re-expression of silenced tumor suppressor genes in RKO cells; type: cell-based, human; details: RKO cells; for SFRP1 RT-PCR specific band: doses of 20 and 50 μM, 24 or 48 hours
Description: To inhibit any residual SIRT1 protein, remaining RNAi-expressing cells were treated with 700 μM SPT and control samples were treated with DMSO for 24 hours. […] RKO cells were also treated with 0.5 μM Aza (24 hours), and samples were analyzed as described in FIG. 1A; RT-PCR was performed with intron-spanning primers specific for the two genes. GAPDH was also analyzed as a control. […] Control samples in which no reverse transcriptase was added were analyzed separately, and all were negative for amplification of the indicated genes. […] The level of TSG re-expression induced by Aza treatment or SIRT1 inhibition as described in FIG. 4(A) was compared to levels of expression in HCT116 cells in which the TSGs are basally expressed.
(§1) Cell culture and retroviral infection. MDA-MB-231, MCF7, HCT116, SW480 RKO, and Phoenix cells (ATCC, Rockville, Md., United States) were cultured in Dulbecco's modified Eagle's medium supplemented with 10% fetal bovine serum and 1% penicillin/streptomycin (Invitrogen, Carlsbad, Calif., United States). Retroviral infection was performed using either single or multiple rounds of infection. Briefly, Phoenix cells were transfected with either pBabe, pBabe-SIRT1H363Y, pSUPERretro, pSUPERretro-SIRT1-RNAi-1-3 (NM_012238 positions 410, 589, and 1091; Oligo Engine, Seattle, Wash., United States) using Lipofectamine 2000 (Invitrogen). After 48 h of transfection, the medium containing retrovirus was collected, filtered, and supplemented with Polybrene prior to infection of target cells (MDA-MB-231, MCF7, or HCT116). Infected cells were either harvested 24-48 hours later or subjected to selection with 2-3 μg/ml puromycin for a week prior to harvest and analysis.
(§2) RNA and protein preparation and analysis. Total RNA was extracted (Invitrogen) according to the manufacturer's instructions and subjected to reverse transcription followed by both quantitative real-time and semi-quantitative polymerase chain reaction. For quantitative real-time analyses, the QuantiTect SYBR Green PCR kit (Qiagen, Valencia, Calif., United States) was used and the amplification conditions consisted of an initial 10-minutes denaturation step at 95° C., followed by 40 cycles of denaturation at 95° C. for 15 s and annealing and extension for 30 seconds and 60 seconds, respectively. A BioRad iCycler was used (BioRad, Hercules, Calif., United States), and for quantitation the comparative cycle threshold (Ct) method was used, normalizing the Ct values for the indicated gene to the Ct values of GAPDH relative to a control sample. For conventional PCR, at least two independent sets of intron-spanning primers were used for the analysis of multiple genes, such as CRBP1, (NM_002899), E-cadherin, (L34545), SFRP1, (BC036503), SFRP2, (BC008666), and Gata-4 (L34357). For Western blots, cells stably expressing RNAi constructs were harvested in 50 mM Tris-HCl, 1% NP-40, 0.25% sodium deoxycholate, 150 mM NaCl, 50 mM sodium fluoride, 1 mM dithiothreitol, 1 mM AEBSF, 1× Complete protease inhibitor cocktail (Roche, Basel, Switzerland). Protein concentrations were measured by BCA (Pierce Biotechnology, Rockford, Ill., United States). […] On the same blot, β-actin (Sigma, St. Louis, Mo., United States) was probed to ensure equal loading.
(§3) The results from experiments performed in RKO cells are shown in FIG. 7 which presents RT-PCR results for SFRP1. […] The expression seemed stronger than for 300 μM splitomycin (Spt) or 20 mM nicotinamide (Nia) when these latter two drugs were used alone or in combination, but not as strong as the expression induced by 1 μM of the DNA demethylating agent, deoxy-aza-cytidine (Aza). […] Experiments were carried out as essentially described above.

[3] = system: SFRP1 and 2 genes in human breast cancer cells (line H231); assay: Re-activation of SFRP1 and 2 genes in breast cancer cells (line H231); type: cell-based
Description: This has been accomplished for the SFRP1 and 2 genes in human breast cancer cells (line H231) and for SFRP1 in human colon cancer cells (line RKO).
as §3

[4] = system: SFRP1 and SFRP2 genes in MCF7 cells; assay: RT-PCR re-expression of silenced tumor suppressor genes in MCF7 cells; type: cell-based, human
Description: as §1, §2

[5] = system: SFRP1, SFRP2, E-cadherin, CRBP1 genes in MDA-MB-231 cells; assay: RT-PCR re-expression of silenced tumor suppressor genes in MDA-MB-231 cells; type: cell-based, human; details: MDA-MB-231 cells
Description: The panels of FIG. 2 are as follows. […] MDA-MB-231 cells were treated with 15 mM NIA or 300 μM SPT for 21 hours, RNA was isolated, and RT-PCR was performed with intron-spanning primers specific for the indicated genes. Control samples in which no reverse transcriptase was added were analyzed separately, and all were negative for amplification of the indicated genes. […] MDA-MB-231 cells were treated with either 50 nM Aza (+), 100 μM SPT (+) or with both Aza and SPT (++), and 34 hours later, RT-PCR was performed for the indicated genes as described in FIG. 2(A). […] MDA-MB-231 cells were treated with either 0, 50, 100, or 120 μM SPT alone for 34 hours, or the treatment was followed by treatment with 300 nM TSA for 3 hours prior to RNA isolation and RT-PCR analysis. […] MDA-MB-231 cells were infected with low titers of virus for shRNA specific for SIRT1. Aza (100 nM) was added 24 hours prior to RNA isolation, and RT-PCR analysis was performed for the genes SFRP 1, SFRP2, and GAPDH as described in FIG. 2(A). […] As shown in the left panel, MDA-MB-231 cells were infected with a control (vec) or mutant SIRT1 virus (HY), and RT-PCR was performed as described in FIG. 2(A). MDA-MB-231 cells were infected with low titers of pBabe or pBabe-SIRT1H363Y retrovirus and subsequently treated with 100 nM Aza for 24 hours or with 300 nM TSA for 3 hours prior to harvest, and RT-PCR was performed.
as §1, §2

[6] = system: SIRT1; assay: Western blot of SIRT1 protein after retroviral shRNA infection; type: cell-based, human; details: MDA-MB-231 cells
Description: as §1, §2

[7] = system: SFRP1, SFRP2, GATA4 promoter methylation in MDA-MB-231 cells; assay: Promoter DNA methylation by bisulfite sequencing and MSP; type: cell-based, human; details: MDA-MB-231 cells stably infected
Description: The panels of FIG. 3 are as follows. […] Parallel samples analyzed in FIG. 1D were subjected to bisulfite sequencing of the SFRP1 promoter from MDA-MB-231 cells stably infected with control vector or RNAi-2 or RNAi-3 retrovirus. Open circles indicate unmethylated cytosines, and closed circles indicate methylated cytosines. Numbers at the bottom show the position of cytosines relative to the transcription start site, which is at position 0, and those with a minus sign (−) are upstream from this start site. The region sequenced encompasses the CpG island in which methylation status correlates with gene expression status. […] From left to right: (−) PCR Ctrl indicates H2O only; (−) BS ctrl indicates bisulfite-treated H20; (+) M ctrl indicates the cell line in which SFRP1 is partially methylated and SFRP2 and GATA4 are fully methylated; and (+) U ctrl indicates the Tera-2 cell line in which each gene is unmethylated. All remaining lanes are for MDA-MB-231. From left to right: Aza indicates 1 μM Aza (24 hours) treatment; Ctrl indicates empty vector infection; RNAi-2 indicates shRNA-2 infection alone; RNAi-3 indicates shRNA-3 infection alone; Aza indicates 1 μM Aza (24 hours treatment of control cells; Ctrl indicates empty vector infection+vehicle; RNAi-2 indicates shRNA-2 infection+5 mM NIA treatment; and RNAi-3 indicates shRNA-3 infection+5 mM NIA treatment.
MSP and bisulfite sequencing. […]

NC(=O)[C@@H]1CCCc2c1[nH]c1ccc(Cl)cc21 [(R)-6-chloro-2,3,4,9-tetrahydro-1H-carbazole-1-carboxamide]
inhibition of SIRT1 deactylase activity [1]: inactive
SFRP1 RT-PCR specific band [2]: produces no specific band

NC(=O)[C@H]1CCCc2c1[nH]c1ccc(Cl)cc21 [(S)-6-chloro-2,3,4,9-tetrahydro-1H-carbazole-1-carboxamide]
transcriptional re-activation of SFRP1 and 2 genes [3]: the same effects have been achieved
inhibition of SIRT1 deactylase activity [1]: potent inhibition
SFRP1 expression compared with 1 μM deoxy-aza-cytidine (Aza) ([2]; RT-PCR): not as strong
SFRP1 expression compared with 300 μM splitomycin or 20 mM nicotinamide, alone or in combination ([2]; RT-PCR): stronger
SFRP1 RT-PCR specific band [2]: produce the band at both time points

NC(=O)c1cccnc1 [NIA, nicotinamide, reference compound]
re-expression of epigenetically silenced, hypermethylated TSGs ([4]; sirtuin inhibitors, data not shown): could cause the re-expression
re-expression of epigenetically silenced, hypermethylated TSGs incl. CRBP1 ([5]; 15 mM NIA or 300 μM SPT for 21 hours): could cause the re-expression

RNAi-2: shRNA targeting SIRT1 mRNA, sequence GGCCACGGATAGGTCCATA, NM_012238 position 589
reduction of SIRT1 protein (knockdown) [6]: very effective in reducing protein levels
gene re-expression of SFRP1, SFRP2 and E-cadherin ([5]; shRNA retroviral infection, RT-PCR): led to gene re-expression
SFRP1 promoter methylation profile (bisulfite sequencing) [7]: without changes in the methylation profile

B1: SIRT1H363Y: catalytically inactive, dominant negative inhibitor of SIRT1, expressed through retroviral infection (protein, UniProt Q96EB6 2-747, looked up, variant H363Y)
NAD-dependent protein …: ADEAALALQPGGSPSAAGADREAASSPAGEPLRKRPRRDGPGLERSPGEPGGAAPEREVPAAARGCPGAAAAALWREAEAEAAAAGGEQEAQATAAAGEGDNGPGLQGPSREPPLADNLYDEDDDDEGEEEEEAAAAAIGYRDNLLFGDEIITNGFHSCESDEEDRASHASSSDWTPRPRIGPYTFVQQHLMIGTDPRTILKDLLPETIPPPELDDMTLWQIVINILSEPPKRKKRKDINTIEDAVKLLQECKKIIVLTGAGVSVSCGIPDFRSRDGIYARLAVDFPDLPDPQAMFDIEYFRKDPRPFFKFAKEIYPGQFQPSLCHKFIALSDKEGKLLRNYTQNIDTLEQVAGIQRIIQCYGSFATASCLICKYKVDCEAVRGDIFNQVVPRCPRCPADEPLAIMKPEIVFFGENLPEQFHRAMKYDKDEVDLLIVIGSSLKVRPVALIPSSIPHEVPQILINREPLPHLHFDVELLGDCDVIINELCHRLGGEYAKLCCNPVKLSEITEKPPRTQKELAYLSELPPTPLHVSEDSSSPERTSPPDSSVIVTLLDQAAKSNDDLDVSESKGCMEEKPQEVQTSRNVESIAEQMENPDLKNVGSSTGEKNERTSVAGTVRKCWPNRVAKEQISRRLDGNQYLFLPPNRYIFHGAEVYSDSEDDVLSSSSCGSNSDSGTCQSPSLEEPMEDESEIEEFYNGLEDEPDVPERAGGAGFGTDGDDQEAINEAISVKQEVTDMNYPSNKS
gene re-expression of SFRP1 and SFRP2 ([4]; retroviral infection, RT-PCR): re-expression of SFRP1 and SFRP2
re-expression of SFRP1 and SFRP2 ([5]; dominant negative expressed through retroviral infection): re-expression of SFRP1 and SFRP2
reactivation of SFRP1 (GATA-5 and SFRP2 data not shown), combined with Aza ([5]; low titers of retrovirus, 100 nM Aza for 24 hours): synergistic reactivation of SFRP1
reactivation of SFRP1 (GATA-5 and SFRP2 data not shown), combined with TSA ([5]; low titers of retrovirus, 300 nM TSA for 3 hours): synergistic reactivation of SFRP1
